Data from US8921376B2, “Pyrrolopyridines useful as inhibitors of protein kinase” (Vertex Pharmaceuticals Incorporated, priority 2005, dated 2014).

Tests used:
Format in all cases: biochemical
JAK3 = molecular target: T1, JAK3 (Homo sapiens, UniProt P52333); assay: JAK3 inhibition assay (33P incorporation into poly(Glu)4Tyr)
T1 sequence (P52333 1-1124): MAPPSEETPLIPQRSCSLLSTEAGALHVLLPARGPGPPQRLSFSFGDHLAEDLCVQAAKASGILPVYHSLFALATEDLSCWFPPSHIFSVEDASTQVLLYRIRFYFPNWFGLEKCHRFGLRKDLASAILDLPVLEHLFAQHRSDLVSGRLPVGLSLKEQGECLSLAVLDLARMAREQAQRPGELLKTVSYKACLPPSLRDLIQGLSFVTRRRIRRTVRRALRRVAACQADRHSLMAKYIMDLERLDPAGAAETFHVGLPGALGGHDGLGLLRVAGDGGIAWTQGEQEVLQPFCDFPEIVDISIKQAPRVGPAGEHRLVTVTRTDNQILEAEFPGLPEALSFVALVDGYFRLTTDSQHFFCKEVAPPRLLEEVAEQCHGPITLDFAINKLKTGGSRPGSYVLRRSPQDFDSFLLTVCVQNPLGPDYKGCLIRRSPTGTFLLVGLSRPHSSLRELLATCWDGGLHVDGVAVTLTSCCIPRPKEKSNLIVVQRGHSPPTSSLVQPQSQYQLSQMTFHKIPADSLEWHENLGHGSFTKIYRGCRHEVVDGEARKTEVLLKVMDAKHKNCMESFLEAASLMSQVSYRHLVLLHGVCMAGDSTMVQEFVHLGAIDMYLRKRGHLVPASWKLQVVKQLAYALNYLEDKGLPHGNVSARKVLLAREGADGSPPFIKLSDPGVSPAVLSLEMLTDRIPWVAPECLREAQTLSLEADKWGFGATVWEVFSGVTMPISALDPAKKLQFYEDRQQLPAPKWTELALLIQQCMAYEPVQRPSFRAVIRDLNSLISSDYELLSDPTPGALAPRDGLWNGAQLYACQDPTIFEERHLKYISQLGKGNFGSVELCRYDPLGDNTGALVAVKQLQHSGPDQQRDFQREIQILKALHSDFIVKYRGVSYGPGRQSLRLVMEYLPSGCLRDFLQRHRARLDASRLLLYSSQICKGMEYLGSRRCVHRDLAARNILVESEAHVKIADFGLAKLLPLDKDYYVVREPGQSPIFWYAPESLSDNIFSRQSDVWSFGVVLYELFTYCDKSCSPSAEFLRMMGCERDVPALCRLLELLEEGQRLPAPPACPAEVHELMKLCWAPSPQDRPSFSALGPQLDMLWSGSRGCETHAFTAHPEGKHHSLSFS
Outline: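 After TCA quench and filter harvest, scintillation counting of 33P measured phosphorylation of poly(Glu)4Tyr (1 μM) by 1 nM JAK3. The 20-min, 25° C. reaction contained 5 μM ATP (200 μCi/μmole) in pH 7.4 HEPES buffer with 10 mM MgCl2.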

JAK2 = JAK2 (Homo sapiens, UniProt O60674); assay: JAK2 inhibition assay (as Example 3 with JAK-2 enzyme)
Outline: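 In HEPES pH 7.4 buffer with 10 mM MgCl2, 1 mM DTT, 25 mM NaCl and 0.01% BSA, JAK2 enzyme phosphorylated poly(Glu)4Tyr (final 15 μM) using 33P-ATP (final 12 μM) for 20 min at room temperature (25 °C). Reactions stopped with TCA; incorporated 33P measured by scintillation after filtration.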

ROCK I = ROCK I (Homo sapiens, UniProt Q13464); assay: ROCK-I inhibition assay (radioactive enzyme assay, MBP substrate)
Outline: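 Human ROCK at 5 nM phosphorylated 27 μM myelin basic protein with 13 μM [γ-33P]ATP (final) in HEPES pH 7.5, MgCl2, NaCl, DTT and 1.5% DMSO. Reactions ran 2 h at room temperature before TCA quench and filter-plate scintillation counting. After background subtraction, data were fit to give Ki(app).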

[1] = Table 6, enzyme inhibition data (Ki)
[2] = enzyme inhibition, Ki(app), Table 5

Chain of ROCK I (Q13464 whole entry): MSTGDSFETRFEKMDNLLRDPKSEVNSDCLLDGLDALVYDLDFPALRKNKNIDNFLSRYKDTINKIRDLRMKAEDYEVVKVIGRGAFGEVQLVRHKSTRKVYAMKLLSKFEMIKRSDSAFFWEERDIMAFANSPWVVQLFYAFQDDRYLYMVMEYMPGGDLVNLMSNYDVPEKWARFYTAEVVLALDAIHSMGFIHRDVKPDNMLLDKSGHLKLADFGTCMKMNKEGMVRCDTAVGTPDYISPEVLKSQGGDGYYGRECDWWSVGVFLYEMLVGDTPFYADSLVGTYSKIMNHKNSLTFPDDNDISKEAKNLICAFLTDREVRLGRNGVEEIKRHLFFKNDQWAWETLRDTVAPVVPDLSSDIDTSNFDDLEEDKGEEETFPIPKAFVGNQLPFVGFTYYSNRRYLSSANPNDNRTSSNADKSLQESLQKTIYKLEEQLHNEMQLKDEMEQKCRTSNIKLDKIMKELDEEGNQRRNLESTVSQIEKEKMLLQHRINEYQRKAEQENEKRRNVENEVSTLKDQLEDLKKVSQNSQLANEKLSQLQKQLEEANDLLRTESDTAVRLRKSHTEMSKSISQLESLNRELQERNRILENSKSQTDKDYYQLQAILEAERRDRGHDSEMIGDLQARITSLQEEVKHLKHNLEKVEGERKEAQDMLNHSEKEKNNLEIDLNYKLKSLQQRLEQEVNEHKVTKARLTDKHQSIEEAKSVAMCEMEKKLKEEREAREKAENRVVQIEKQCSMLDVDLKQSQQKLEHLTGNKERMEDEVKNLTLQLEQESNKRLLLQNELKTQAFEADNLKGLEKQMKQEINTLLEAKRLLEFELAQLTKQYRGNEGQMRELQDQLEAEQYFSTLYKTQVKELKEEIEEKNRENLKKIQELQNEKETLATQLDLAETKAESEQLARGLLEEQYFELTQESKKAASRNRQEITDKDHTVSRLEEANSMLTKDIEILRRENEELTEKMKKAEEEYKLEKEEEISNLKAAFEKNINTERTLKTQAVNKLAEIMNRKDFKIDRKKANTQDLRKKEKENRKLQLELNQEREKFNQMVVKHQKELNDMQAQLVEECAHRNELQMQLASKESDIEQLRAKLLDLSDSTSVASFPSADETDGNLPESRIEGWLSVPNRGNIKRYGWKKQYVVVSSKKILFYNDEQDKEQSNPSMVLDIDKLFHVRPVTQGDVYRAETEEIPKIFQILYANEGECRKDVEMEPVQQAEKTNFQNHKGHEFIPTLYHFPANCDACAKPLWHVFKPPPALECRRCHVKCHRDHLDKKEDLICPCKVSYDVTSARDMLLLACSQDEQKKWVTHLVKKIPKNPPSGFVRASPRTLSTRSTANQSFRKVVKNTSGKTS
Chain of JAK2 (O60674 whole entry): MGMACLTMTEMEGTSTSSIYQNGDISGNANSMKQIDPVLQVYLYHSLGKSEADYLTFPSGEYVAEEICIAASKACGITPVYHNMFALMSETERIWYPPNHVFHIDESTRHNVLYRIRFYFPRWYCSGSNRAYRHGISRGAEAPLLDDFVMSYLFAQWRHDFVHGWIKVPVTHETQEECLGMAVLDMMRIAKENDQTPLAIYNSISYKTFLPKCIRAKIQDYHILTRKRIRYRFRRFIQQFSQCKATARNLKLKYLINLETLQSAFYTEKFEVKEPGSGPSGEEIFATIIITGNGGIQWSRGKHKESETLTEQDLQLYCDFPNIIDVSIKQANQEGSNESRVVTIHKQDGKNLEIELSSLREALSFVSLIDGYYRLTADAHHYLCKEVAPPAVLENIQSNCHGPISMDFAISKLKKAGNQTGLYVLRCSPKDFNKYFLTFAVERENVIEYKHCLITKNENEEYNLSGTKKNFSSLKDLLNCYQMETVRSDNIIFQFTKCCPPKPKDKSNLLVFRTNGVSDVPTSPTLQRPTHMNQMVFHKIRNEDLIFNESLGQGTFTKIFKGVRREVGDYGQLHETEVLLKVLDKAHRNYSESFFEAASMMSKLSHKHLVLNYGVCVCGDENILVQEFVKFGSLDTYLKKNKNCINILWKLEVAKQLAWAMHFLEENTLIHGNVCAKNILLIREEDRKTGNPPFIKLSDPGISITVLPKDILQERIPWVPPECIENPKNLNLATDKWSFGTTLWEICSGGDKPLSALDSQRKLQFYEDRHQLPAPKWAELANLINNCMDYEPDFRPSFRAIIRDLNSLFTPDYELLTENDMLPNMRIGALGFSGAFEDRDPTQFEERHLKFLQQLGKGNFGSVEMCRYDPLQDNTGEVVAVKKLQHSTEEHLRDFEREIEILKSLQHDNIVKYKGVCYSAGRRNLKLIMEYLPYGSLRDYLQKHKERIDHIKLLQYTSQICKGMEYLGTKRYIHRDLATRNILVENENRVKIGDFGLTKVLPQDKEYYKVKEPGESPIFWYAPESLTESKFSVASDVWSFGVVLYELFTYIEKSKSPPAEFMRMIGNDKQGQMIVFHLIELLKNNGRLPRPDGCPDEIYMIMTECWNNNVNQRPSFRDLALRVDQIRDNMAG

Ki (JAK3; [1])	Ki (JAK2; [1])	Ki (ROCK I; [1])	Ki (JAK3; enzyme inhibition, Table 5)	Ki (JAK2; enzyme inhibition, Table 5)	Ki (ROCK I; [2])	SMILES
< 500 nM	< 500 nM	< 500 nM	–	–	–	C#CCNC(=O)c1cc(-c2ccnc3[nH]ccc23)c[nH]1 [compound 294]
500 to 5000 nM	500 to 5000 nM	> 4000 nM	–	–	–	O=C(CCNc1nc(-c2ccnc3[nH]ccc23)ncc1F)NCC(F)(F)F [compound 193]
< 500 nM	< 500 nM	500 to 5000 nM	–	–	–	CCCCN(CC#N)C(=O)c1cc(-c2c(Cl)cnc3[nH]ccc23)c[nH]1 [compound 332]
< 500 nM	< 500 nM	500 to 5000 nM	–	–	–	O=C(c1cc(-c2c(F)cnc3[nH]ccc23)c[nH]1)N(CCC(F)(F)F)CC1CC1 [compound 390]
< 500 nM	< 500 nM	< 500 nM	–	–	–	CC(C)NC(=O)c1cc(-c2ccnc3[nH]ccc23)c[nH]1 [compound 264]
< 500 nM	< 500 nM	< 500 nM	–	–	–	O=C(NCCC(F)(F)F)c1ccc(-c2ccnc3[nH]ccc23)cc1 [compound 268]
< 500 nM	< 500 nM	> 4000 nM	–	–	–	CC(=O)c1ccc(-c2c(Cl)cnc3[nH]ccc23)s1 [compound 145]
> 5000 nM	> 5000 nM	> 4000 nM	–	–	–	O=C(NCC(F)(F)F)c1ccccc1-c1ccnc2[nH]ccc12 [compound 253]
< 500 nM	< 500 nM	500 to 5000 nM	–	–	–	O=C(NCC(F)(F)F)c1cc(-c2c(Cl)cnc3[nH]ccc23)c[nH]1 [compound 276]
500 to 5000 nM	< 500 nM	< 500 nM	–	–	–	CC[C@H](C)NC(=O)c1cc(-c2ccnc3[nH]ccc23)c[nH]1 [compound 290]
< 500 nM	< 500 nM	< 500 nM	–	–	–	CC(C)CNC(=O)c1cc(-c2ccnc3[nH]ccc23)c[nH]1 [compound 291]
< 500 nM	< 500 nM	< 500 nM	–	–	–	N#CCN(Cc1ccccc1)C(=O)c1cc(-c2c(F)cnc3[nH]ccc23)c[nH]1 [compound 391]
< 500 nM	< 500 nM	< 500 nM	–	–	–	N#CCN(Cc1cccc(Cl)c1)C(=O)c1cc(-c2c(F)cnc3[nH]ccc23)c[nH]1 [compound 399]
< 500 nM	< 500 nM	< 500 nM	–	–	–	CCCNC(=O)c1cc(-c2ccnc3[nH]ccc23)c[nH]1 [compound 283]

The next lines start with the compound.

SMILES	Ki (JAK3; [1])	Ki (JAK2; [1])	Ki (ROCK I; [1])	Ki (JAK3; enzyme inhibition, Table 5)	Ki (JAK2; enzyme inhibition, Table 5)	Ki (ROCK I; [2])
CC(=O)Nc1cccc(-c2ccnc3[nH]ccc23)c1 [compound 107, N-[3-(1H-Pyrrolo[2,3-b]pyridin-4-yl)-phenyl]-acetamide]	–	–	–	500 to 5000 nM	500 to 5000 nM	500 to 5000 nM
C[C@@H]1CC[C@H](C)N1C(=O)c1csc(-c2ccnc3[nH]ccc23)n1 [compound 417]	< 500 nM	< 500 nM	< 500 nM	–	–	–
CN(C)CCN(C)c1cccc(-c2c(Cl)cnc3[nH]ccc23)n1 [compound 83]	–	–	–	< 500 nM	< 500 nM	500 to 5000 nM
O=C(O)c1cccc(-c2ccnc3[nH]ccc23)c1 [compound 47, 3-(1H-Pyrrolo[2,3-b]pyridin-4-yl)-benzoic acid]	–	–	–	500 to 5000 nM	500 to 5000 nM	500 to 5000 nM
O=C(NCC1CC1)c1csc(-c2ccnc3[nH]ccc23)n1 [compound 412]	< 500 nM	< 500 nM	500 to 5000 nM	–	–	–
CC(C)(C#N)c1cccc(-c2ccnc3[nH]ccc23)n1 [compound 71, 2-(6-(1H-pyrrolo[2,3-b]pyridin-4-yl)pyridin-2-yl)-2-methylpropanetrile]	–	–	–	< 500 nM	< 500 nM	< 500 nM
Clc1cnc2[nH]ccc2c1-c1cc2ccccc2s1 [compound 137]	< 500 nM	< 500 nM	> 4000 nM	–	–	–
Clc1ccccc1CCNc1cccc(-c2c(Cl)cnc3[nH]ccc23)n1 [compound 75, N-(2-Chlorophenethyl)-6-(5-chloro-1H-pyrrolo[2,3-b]pyridin-4-yl)pyridin-1-amine]	–	–	–	500 to 5000 nM	500 to 5000 nM	500 to 5000 nM
CC1CC[C@@H](C)N1C(=O)c1csc(-c2ccnc3[nH]ccc23)n1 (stereo partly drawn) [compound 414]	< 500 nM	< 500 nM	< 500 nM	–	–	–
c1cc(-c2cn[nH]c2)c2cc[nH]c2n1 [compound 250]	< 500 nM	< 500 nM	< 500 nM	–	–	–
CCC1CCCCN1C(=O)c1csc(-c2ccnc3[nH]ccc23)n1 (stereo not drawn) [compound 423]	< 500 nM	< 500 nM	< 500 nM	–	–	–
Nc1ccccc1-c1ccnc2[nH]ccc12 [compound 119]	–	–	–	> 5000 nM	> 5000 nM	500 to 5000 nM
CC(C)c1cccc(-c2ccnc3[nH]ccc23)c1 [compound 109, 4-(3-Isopropyl-phenyl)-1H-pyrrolo[2,3-b]pyridine]	–	–	–	< 500 nM	< 500 nM	< 500 nM
CC(C)(C(=O)O)c1cccc(-c2ccnc3[nH]ccc23)n1 [compound 96, 2-(6-(1H-pyrrolo[2,3-b]pyridin-4-yl)pyridin-2-yl)-2-methylpropanoic acid]	–	–	–	500 to 5000 nM	500 to 5000 nM	500 to 5000 nM
CC(C)CNc1cccc(-c2ccnc3[nH]ccc23)n1 [compound 20]	–	–	–	500 to 5000 nM	500 to 5000 nM	500 to 5000 nM
CCCOC(=O)N1CC[C@@H](Nc2c(Cl)cnc3[nH]ccc23)C1 [compound 171]	< 500 nM	< 500 nM	500 to 5000 nM	–	–	–
Nc1ncccc1-c1ccnc2[nH]ccc12 [compound 195]	> 5000 nM	> 5000 nM	> 4000 nM	–	–	–
Clc1cnc2[nH]ccc2c1-c1cccs1 [compound 135]	< 500 nM	< 500 nM	< 500 nM	–	–	–
CNc1ccccc1-c1ccnc2[nH]ccc12 [compound 381]	500 to 5000 nM	500 to 5000 nM	> 4000 nM	–	–	–
CN(C)C(=O)c1cccc(-c2ccnc3[nH]ccc23)c1 [compound 92, N,N-Dimethyl-3-(1H-pyrrolo[2,3-b]pyridin-4-yl)-benzamide]	–	–	–	500 to 5000 nM	500 to 5000 nM	500 to 5000 nM
FC(F)(F)c1ccccc1-c1ccnc2[nH]ccc12 [compound 208]	> 5000 nM	> 5000 nM	500 to 5000 nM	–	–	–
CC1CCC(C)N1C(=O)c1cc(-c2ccnc3[nH]ccc23)c[nH]1 (stereo not drawn) [compound 375]	< 500 nM	< 500 nM	< 500 nM	–	–	–
CC(=O)Nc1ccccc1-c1ccnc2[nH]ccc12 [compound 118]	–	–	–	> 5000 nM	> 5000 nM	500 to 5000 nM
CCCN(CC1CC1)C(=O)c1cc(-c2ccnc3[nH]ccc23)c[nH]1 [compound 301]	< 500 nM	< 500 nM	< 500 nM	–	–	–
COc1ccc(OC)c(-c2ccnc3[nH]ccc23)c1 [compound 221]	> 5000 nM	> 5000 nM	500 to 5000 nM	–	–	–
CCCCN(CCC#N)C(=O)c1ccc(-c2ccnc3[nH]ccc23)s1 [compound 321]	< 500 nM	< 500 nM	< 500 nM	–	–	–
CCN(CCC#N)C(=O)c1cc(-c2ccnc3[nH]ccc23)c[nH]1 [compound 297]	< 500 nM	< 500 nM	< 500 nM	–	–	–
Oc1cccc(-c2ccnc3[nH]ccc23)c1 [compound 105, 3-(1H-Pyrrolo[2,3-b]pyridin-4-yl)-phenol]	–	–	–	< 500 nM	< 500 nM	< 500 nM
c1cc(CNC2CC2)cc(-c2ccnc3[nH]ccc23)c1 [compound 86, Cyclopropyl-[3-(1H-pyrrolo[2,3-b]pyridin-4-yl)-benzyl]-amine]	–	–	–	500 to 5000 nM	500 to 5000 nM	< 500 nM
